Assay results published in US20030113281A1, “Assay for identification of compounds that promote melanin production and retinoid-like compounds identified by said assay” (Galderma Research & Development, S.N.C., priority 1998, published 2003).

Tested on: normal human melanocytes
Experiment: Melanin content of normal human melanocytes, normalized to proliferation (MTS)
Type: cell-based
Conditions: 5 day treatment, normal human melanocytes from neonatal skin
Procedure: Normal human melanocytes from neonatal skin were used for the assay. For the primary screening, the cells were seeded simultaneously into 96-well plates and 24-well plates appropriately according to the surface area of the wells, and treated with the test compound for 5 days. The addition of the compound to the plates was done using a Robot to ensure accuracy (same amount in each well). At the end of 5 day treatment, the cells in the 96-well plate were treated with MTS solution and the plate was read at 490 nm to determine the effect of the compounds on the growth of the cells. The cells in the 24-well plates were rinsed with PBS, and then lysed with 1N NaOH, and the absorbence of alkali soluble melanin was measured at 405 nm.
The data from the 96-well plate was analyzed to determine the effect of each compound on the proliferation of the cells, and the data from the 24-well plate was used to determine the effect of the compound on the melanin content of the cells. The melanin content was then normalized to the proliferation of the cells.

Question: With `C=C(c1ccc(C(=O)O)cc1)c1ccc2c(c1)C(C)(C)CCC2(C)C` [CD No. 2771, 4-[1-(5,6.7,8-tetrahydro-5,5,8,8-tetramethyl-2-naphthyl)ethenyl]benzoic acid] as the molecule, how does the “Maximum Increase in Melanin Content (Normalized)” value (“Maximum Increase … (Normalized)” for short) (at 2 μM) read?
Answer: 250% at 2 μM

Question: With `Cc1cc2c(cc1-c1cccc(C=CC(=O)O)c1)C(C)(C)CCC2(C)C` [CD No. 2915, 3-[3-(3,5,5,8,8-pentamethyl-5.6,7.8-tetrahydro-naphthalen-2-yl)-phenyl]-acrylic acid] as the molecule, how does the “Maximum Increase … (Normalized)” value (at 0.1 μM) read?
Answer: 165% at 0.1 μM

Question: How did the “Maximum Increase … (Normalized)” value (at 0.5 μM) turn out when `CC(=CC(=O)O)c1cccc(-c2cc3c(cc2C)C(C)(C)CCC3(C)C)c1` [CD No. 3206, 3-[3-(3,5.5,8,8-pentamethyl-5,6,7,8-tetrahydro-naphthalen-2-yl)-phenyl]-but-2-enoic acid] was run?
Answer: 198% at 0.5 μM
